{
  "source": "ChEMBL document CHEMBL1152976",
  "about": "“Dracotanosides A-D, spermidine glycosides from Dracocephalum tanguticum: structure and amide rotational barrier” (J Nat Prod, 2009)",
  "key": {"K562": {"system": "K562", "test": "Cytotoxicity against human drug-sensitive K562 cells after 48 hrs by MTT assay", "format": "functional, cell-based", "settings": "K562, 48 h"}, "[1]": {"test": "Cytotoxicity against human drug-resistant K562/A02 cells after 48 hrs by MTT assay", "format": "functional, cell-based", "settings": "K562/A02, 48 h"}},
  "data": [
    {"compound": "C[C@@H]1O[C@@H](Oc2ccc([C@H]3CCCN(C(=O)/C=C/c4ccccc4)CCCNC(=O)CCN3)cc2)[C@H](O[C@@H]2O[C@H](COC(=O)c3ccccc3)[C@@H](O)[C@H](O)[C@H]2O)[C@H](O)[C@H]1O", "note": "[DRACOTANOSIDE B]", "values": [
      {"measurement": "IC50", "setting": "K562", "value": "> 200", "unit": "µM"},
      {"measurement": "IC50", "setting": "[1]", "value": "> 200", "unit": "µM"}
    ]},
    {"compound": "C[C@@H]1O[C@@H](Oc2ccc([C@H]3CCCN(C(=O)/C=C\\c4ccccc4)CCCNC(=O)CCN3)cc2)[C@H](O[C@@H]2O[C@H](COC(=O)c3ccccc3)[C@@H](O)[C@H](O)[C@H]2O)[C@H](O)[C@H]1O", "note": "[DRACOTANOSIDE A]", "values": [
      {"measurement": "IC50", "setting": "K562", "value": "> 200", "unit": "µM"},
      {"measurement": "IC50", "setting": "[1]", "value": "> 200", "unit": "µM"}
    ]},
    {"compound": "C[C@H]1O[C@@H](Oc2ccc([C@H]3CCCN(C(=O)/C=C/c4ccccc4)CCCNC(=O)CCN3)cc2)[C@@H](O)[C@@H](O)[C@@H]1O", "note": "[DRACOTANOSIDE D]", "values": [
      {"measurement": "IC50", "setting": "K562", "value": "> 200", "unit": "µM"},
      {"measurement": "IC50", "setting": "[1]", "value": "> 200", "unit": "µM"}
    ]},
    {"compound": "C[C@H]1O[C@@H](Oc2ccc([C@H]3CCCN(C(=O)/C=C\\c4ccccc4)CCCNC(=O)CCN3)cc2)[C@@H](O)[C@@H](O)[C@@H]1O", "note": "[DRACOTANOSIDE C]", "values": [
      {"measurement": "IC50", "setting": "K562", "value": "> 200", "unit": "µM"},
      {"measurement": "IC50", "setting": "[1]", "value": "> 200", "unit": "µM"}
    ]},
    {"compound": "O=C1CCN[C@@H](c2ccc(O)cc2)CCCN(C(=O)/C=C\\c2ccccc2)CCCN1", "values": [
      {"measurement": "IC50", "setting": "K562", "value": "> 200", "unit": "µM"},
      {"measurement": "IC50", "setting": "[1]", "value": "> 200", "unit": "µM"}
    ]}
  ]
}
